Experimental data: patent publication US20110263693A1, “CELASTROL, GEDUNIN, AND DERIVATIVES THEREOF AS HSP90 INHIBITORS” (DANA-FARBER CANCER INSTITUTE, INC., priority 2006, published 2011)
Like-named read-outs stand apart in the source and are kept apart here.

Columns and labels:
[1] = system: gedunin signature; test: Connectivity Map query with the gedunin signature; format: cell-based, human; set-up: key to gedunin score (connectivity score): connectivity score, based on Kolmogorov-Smirnov statistic
Description: (§1) Indeed, a major challenge in cell-based chemical biology and chemical genomics is the identification of compounds' targets (Gardner et al., 2003). We hypothesized that gene expression signatures could be used to identify compound action based on the similarity of such compound-induced signatures to signatures of existing drugs of known mechanism. We therefore employed a collection of gene expression profiles of drug-treated cell lines that was developed in our lab, termed the Connectivity Map (Lamb et al., 2006). This database comprises 453 genome-wide Affymetrix expression profiles derived from the treatment of human cell lines with 164 small molecules, primarily FDA-approved drugs. A 6 hr treatment time was chosen in an attempt to capture the primary, and potentially mechanistic, effects of the compounds rather than the downstream phenotypic consequences.
(§2) In order to use the Connectivity Map to gain insight into celastrol and gedunin function, we first defined a gene expression signature of celastrol and gedunin activity. The expression signatures of celastrol and gedunin were derived by expression profiling of RNA from LNCaP cells treated with celastrol (1.25 μM), gedunin (20 μM), and vehicle (DMSO) for 6 hr; signatures were defined using comparative marker selection to identify transcripts that distinguished between the compound- and vehicle-treated profiles by the signal-to-noise (SNR) metric. The enrichment of these signatures in the gene expression profiles of the Connectivity Map database was then assessed using a gene enrichment metric, the connectivity score, based on the Kolmogorov-Smirnov statistic (Lamb et al., 2003).
(§3) The celastrol and gedunin signatures were developed from RMA-processed microarray data from LNCaP cells treated with 1.25 μM celastrol or 20 μM gedunin for 6 hours. Comparative marker selection was used to identify markers that distinguished celastrol- and/or gedunin-treated samples from vehicle-treated samples by the median SNR (Golub et al., 1999). The top 50 markers that increased and decreased relative to vehicle-treated controls were used as the signatures.
(§4) The current version of the Connectivity Map data set (build01) contains genome-wide expression data for 453 treatment and vehicle control pairs, representing 164 distinct small molecules. Cell treatments and Affymetrix profiling were predominantly carried out in MCF7 cells with 6 hr treatments as detailed (Table 4) (Lamb et al., 2006). Enrichment of the induced and repressed genes of a signature within each Connectivity Map treatment profile was estimated with a metric based on the Kolmogorov-Smirnov statistic as described (Lamb et al., 2003, Lamb et al., 2006). Connectivity Map data are available at www.broad.mit.edu/cmap/ and GEO (accession number GSE5258).
(§5) For the celastrol and gedunin signatures, RMA-processed data was filtered and thresholded (min fold change=2, min absolute change=50, floor=10, ceiling=16000). Comparative marker selection (GenePattern) was used to identify markers that distinguished celastrol- and/or gedunin-treated samples from vehicle-treated samples by the median SNR. The top fifty markers that increased and decreased relative to vehicle treated controls were used as the celastrol, gedunin, or joint celastrol/gedunin signatures.
(§6) The current version of The Connectivity Map dataset (build01) contains genome-wide expression data for 453 treatment and vehicle control pairs, representing 164 distinct small molecules. Cell treatments were predominantly carried out in the MCF7 cell line for 6 h as detailed in Table 4. Affymetrix profiling was then carried out as described (Lamb et al., 2006).

[2] = system: celastrol signature; test: Connectivity Map query with the celastrol signature; format: cell-based, human; set-up: key to celastrol score (connectivity score): connectivity score, based on Kolmogorov-Smirnov statistic
Description: as §1, §2, §3, §4, §5, §6

[3] = enrichment of the gedunin signature (20 μM gedunin at 6 hours, LNCaP) in the compound's Connectivity Map profiles, 6 hr treatment
[4] = enrichment of the celastrol signature (1.25 μM celastrol at 6 h, LNCaP) in the compound's Connectivity Map profiles, 6 hr treatment
[5] = rank by gedunin score among 164 Connectivity Map compounds
[6] = rank by celastrol score among 164 Connectivity Map compounds

| Compound | gedunin score (connectivity score) [1, 3] | celastrol score (connectivity score) [2, 4] | further results |
| --- | --- | --- | --- |
| O=S(=O)([O-])[O-].[Cu+2] [copper sulfate] | – | – | gedunin rank [1]: 78; gedunin score (connectivity score) [1]: 0.066; celastrol rank [2]: 68; celastrol score (connectivity score) [2]: 0.113 |
| CCCC(=O)Nc1ncnc2c1ncn2[C@@H]1O[C@@H]2COP(=O)(O)O[C@H]2[C@H]1OC(=O)CCC [bucladesine] | −0.144 | 0 | – |
| O=C(O)c1cc(/N=N/c2ccc(S(=O)(=O)Nc3ccccn3)cc2)ccc1O [sulfasalazine] | 0 | 0 | – |
| CS(=O)(=O)c1ccc(C2=C(c3ccccc3)C(=O)OC2)cc1 [rofecoxib] | 0.148 | 0.088 | – |
| CC(=O)c1c(O)c(C)c(O)c(Cc2c(O)c3c(c(C(=O)/C=C/c4ccccc4)c2O)OC(C)(C)C=C3)c1O [rottlerin] | 0.209 | 0.355 | – |
| Clc1ccccc1C(c1ccccc1)(c1ccccc1)n1ccnc1 [clotrimazole] | 0.577 | 0.557 | – |
| O=C(c1ccc(OCCN2CCCCC2)cc1)c1c(-c2ccc(O)cc2)sc2cc(O)ccc12 [raloxifene] | 0.292 | 0 | – |
| CC1(C)O[C@@H]2[C@@H](CO[C@@]3(COS(N)(=O)=O)OC(C)(C)O[C@@H]23)O1 [topiramate] | 0 | 0 | – |
| NC(=O)C(=O)O [oxamic acid] | 0 | −0.654 | – |
| C[C@]12CC[C@@H]3c4ccc(O)cc4C[C@@H](CCCCCCCCC[S+]([O-])CCCC(F)(F)C(F)(F)F)[C@H]3[C@@H]1CC[C@@H]2O (stereo partly drawn) [fulvestrant] | 0.19 | 0.069 | – |
| Cc1cccc(Nc2cc(Cl)nc(SCC(=O)O)n2)c1C [pirinixic acid] | 0.055 | 0.226 | – |
| CN(C)CCCN1c2ccccc2Sc2ccc(Cl)cc21 [chlorpromazine] | 0.218 | 0.08 | – |
| COc1ccc2c(c1)c(CC(=O)O)c(C)n2C(=O)c1ccc(Cl)cc1 [indometacin] | 0.087 | 0.228 | – |
| CCCc1c(OCCCCc2nnn[nH]2)ccc(C(C)=O)c1O [tomelukast] | 0 | 0.388 | – |
| Nc1c(O)cccc1C(=O)CC(N)C(=O)O (racemic) [3-hydroxy-DL-kynurenine] | 0 | 0 | gedunin rank [1, 5]: 96; celastrol rank [2, 6]: 136 |
| CSc1ccc2c(c1)N(CCC1CCCCN1C)c1ccccc1S2 (stereo not drawn) [thioridazine] | 0.522 | 0.308 | – |
| CC[C@H]1/C=C/C=C/C[C@@H](C)[C@H](O)[C@@](C)(O)C(=O)[C@@H](C)[C@H](O)[C@@H](C)C(=O)[C@@H](C)[C@H](O)[C@@H](C)/C=C/C(=O)O[C@@H]2[C@H](C)[C@H](CC1)O[C@]1(CC[C@H](C)[C@H](C[C@@H](C)O)O1)[C@H]2C [oligomycin] | 0.305 | −0.491 | – |
| CCCCCCCCCCCCCCCC(=O)N[C@H](CN1CCOCC1)[C@H](O)c1ccccc1 (racemic) [DL-PPMP] | 0 | 0 | gedunin rank [1, 5]: 110; celastrol rank [2, 6]: 138 |
| CCOC(=O)C1=C(C)NC(C)=C(C(=O)OC)C1c1cccc([N+](=O)[O-])c1 (stereo not drawn) [nitrendipine] | 0 | 0 | – |
| N=C(N)NC(N)=Nc1ccccc1 [phenyl biguanide] | 0 | 0 | – |
| S=c1nc[nH]c2nc[nH]c12 [mercaptopurine] | 0.21 | −0.121 | – |

| Compound | gedunin score (connectivity score) [1, 3] | celastrol score (connectivity score) [2, 4] | further results |
| --- | --- | --- | --- |
| CC(=O)Oc1ccccc1C(=O)O [acetylsalicylic acid] | 0 | 0.154 | – |
| C[C@@H]1C[C@H]2[C@@H]3CCC4=CC(=O)C=C[C@]4(C)[C@@]3(F)[C@@H](O)C[C@]2(C)[C@@]1(O)C(=O)CO [dexamethasone, reference compound] | 0 | 0 | – |
| O=c1c(O)c(-c2ccc(O)c(O)c2)oc2cc(O)ccc12 [fisetin] | 0 | 0 | – |
| C[C@]12CC[C@@H]3c4ccc(O)cc4CC[C@H]3[C@@H]1CC[C@H]2O [alpha-estradiol] | 0.045 | −0.066 | – |
| O=C(CCCCCCC(=O)Nc1ccccc1)NO [vorinostat] | 0.554 | 0 | – |
| Cn1cnc([N+](=O)[O-])c1Sc1ncnc2nc[nH]c12 [azathioprine] | 0.361 | 0.552 | – |
| Cc1c(C)c2c(c(C)c1O)CCC(C)(COc1ccc(CC3SC(=O)NC3=O)cc1)O2 (stereo not drawn) [troglitazone] | 0.167 | 0.42 | – |
| NCCNCCNCCNCCN [tetraethylenepentamine] | −0.092 | −0.039 | – |
| [H]/N=C(/N)N/C(=N/[H])NCCc1ccccc1 [phenformin] | 0 | 0.355 | – |
| butirosin | −0.55 | 0 | gedunin rank [1, 5]: 162; celastrol rank [2, 6]: 132 |
| COc1cc2c(c(OC)c1OC)-c1ccc(OC)c(=O)cc1[C@@H](NC(C)=O)CC2 [colchicine] | 0.192 | 0.391 | – |
| O=S(=O)(c1cccc2cnccc12)N1CCCNCC1 [fasudil] | 0 | 0 | – |
| Cc1ccc(N(CC2=NCCN2)c2cccc(O)c2)cc1 [phentolamine] | 0 | 0 | – |
| CN(CCOc1ccc(CC2SC(=O)NC2=O)cc1)c1ccccn1 (stereo not drawn) [rosiglitazone] | 0 | 0.098 | – |
| CC(C)(Sc1cc(C(C)(C)C)c(O)c(C(C)(C)C)c1)Sc1cc(C(C)(C)C)c(O)c(C(C)(C)C)c1 [probucol] | 0 | 0.332 | – |
| CCCNC(=O)NS(=O)(=O)c1ccc(Cl)cc1 [chlorpropamide] | 0 | 0 | – |
| Cc1ccc2c(c1)C(=O)C1(O)CCN(c3ccccc3)C1=N2 (stereo not drawn) [blebbistatin] | 0 | 0 | gedunin rank [1, 5]: 107; celastrol rank [2, 6]: 87 |
| C[C@]12C=CC(=O)C=C1CC[C@@H]1[C@@H]2[C@@H](O)C[C@@]2(C)[C@H]1CC[C@]2(O)C(=O)CO [prednisolone] | 0 | 0 | – |
| [Cl][Co][Cl] [cobalt chloride] | 0.1 | 0.269 | gedunin rank [1, 5]: 72; celastrol rank [2, 6]: 48 |
| CSc1ccc(/C=C2/C(C)=C(CC(=O)O)c3cc(F)ccc32)cc1 [sulindac sulfide] | 0 | 0 | – |
| CCOC(=O)C1=C(C)NC(=S)NC1c1cccc(O)c1 (stereo not drawn) [monastrol] | 0.069 | 0.226 | – |
